Results taken from patent publication US20220175761A1, “BI-LIGAND DRUG CONJUGATE AND USE THEREOF” (COHERENT BIOPHARMA (SUZHOU), LIMITED, priority 2019, published 2022).
Numbered stars: 1 amine (or outer) side, 2 acyl side, 3 side chain; on linkers, the order of the positions; unused ones are H or OH. Bridge positions count the residues as written; N and C are the ends. Square brackets hold non-standard residues; d marks the D form. Peptide text beside a SMILES is read from it. I, II: the chains in the order shown. * marks the point of attachment. ξ: configuration not given here. Hexanoyl(6-succinimido-3yl) = O=C1CC([*:1])C(=O)N1CCCCCC(=O)[*:2]; EuK = O=C(O)CC[C@H](NC(=O)N[C@@H](CCCCN*)C(=O)O)C(=O)O; Dolaproine = CO[C@@H]([C@@H]1CCCN1)[C@@H](C)C(=O)O; Dil = CC[C@H](C)[C@H](NC)[C@@H](CC(=O)O)OC; PABC = O=C(OCc1ccc(N[*:1])cc1)[*:2]; X1 = C[C@@H](N*)[C@@H](O)c1ccccc1; X2 = O=C(Cc1ccc(CN[*:1])cc1)[*:2]; PEG4 = NCCOCCOCCOCCOCCC(=O)O; NMeV = CN[C@H](C(=O)O)C(C)C; ξCit = NC(=O)NCCCC(N)C(=O)O; CO = O=C([*:1])[*:2]; ξV = CC(C)C(N)C(=O)O; Ahx = NCCCCCC(=O)O

Experiments:
[1] = system: HPAF-II (human pancreatic cancer cells); experiment: Tumor growth inhibition in subcutaneous xenograft model (CDX); type: in vivo, BALB/c-nude mice
Experimental: (§1) Main CDX models: HPAF-II (human pancreatic cancer cells), NCI-H226 (human lung cancer cells) and SCLC-21H (small cell lung cancer cells)
(§2) The cells or tumor tissue mass were prepared and subcutaneously inoculated into the anterior right flank of BALB/c-nude mice. When the tumor volume expanded to 80-160 mm^3, a randomized grouping was performed, and a model control group and administration groups were set. The mice were administrated from the first day of grouping, wherein the administration dose was adjusted according to the latest weight measurement. The mice were administrated via tail vein injection at an administration volume of 10 μl/g. After grouping and administration, the effects of tumor growth and treatment on normal behaviors of animals, specifically including the activity of experimental animals, food intake and drinking status, weight gain or loss status, and other abnormal conditions in eyes, hair, etc., were monitored. After grouping and administration, the weight of mice was measured twice a week to calculate the rate of weight change; at the same time, the long diameter and short diameter of the tumor were measured with a vernier caliper, and the tumor volume, relative tumor proliferation rate, tumor volume inhibition rate and other indicators were calculated. The formula of tumor volume is TV=0.5 a×b^2, wherein a is […] the long diameter of a tumor and b is the short diameter of a tumor.

[2] = system: CFPAC-1 (human pancreatic cancer cells); experiment: Inhibition of cell line proliferation, CCK8; type: cell-based; details: for IC50 (MMAE)/IC50 (conjugate): CFPAC-1; for IC50: CFPAC-1, 68-72 hours, CCK8
[3] = system: LNCaP (human prostate cancer cells); experiment: Inhibition of cell line proliferation, CCK8; type: cell-based; details: LNCaP; for IC50: 68-72 hours, CCK8
[4] = system: NCI-H226 (human lung cancer cells); experiment: Inhibition of cell line proliferation, CCK8; type: cell-based
Experimental: (§3) Experimental operations: LNCaP, SK-BR-3, NCI-H226, CFPAC-1 and PANC-1 cells were prepared in advance and counted; with a culture medium (IMDM+10% FBS+1× L-Glutamine+1×P/S), the cells LNCaP, SK-BR-3 and CFPAC-1 were diluted to 4×10^4 cells/ml, NCI-H226 was diluted to 2.0×10^4 cells/ml and PANC-1 was diluted to 3.0×10^4 cells/ml; the diluted cell solution was plated in 96-well plates at 100 μl/well; and negative control and blank control wells were set on each plate. After adherent cell culture overnight, the diluted samples to be tested were added at 50 μl/well. The plates were placed in an incubator at 37° C., 5% CO2 and cultured for 68-72 hours. To each well, 15 μl (10% of the liquid volume in a well) of a color developing solution from CCK8 was added; and the plates were incubated at 37° C. for 45-70 minutes and each plate was read at 450 nm on a microplate reader. The data was edited using SoftMax Pro and a 4-P fitting curve was plotted.
Experimental operations: NCI-H226, CFPAC-1 and MDA-MB-468 cells were prepared in advance and counted; MDA-MB-468 and CFPAC-1 cells were plated at a density of 2×10^4 cells/ml (100 μl/well) and NCI-H226 cells were plated at a density of 1×10^4 cells/ml (100 μl/well) in 96-well plates; and negative control and blank control wells were set on each plate. After adherent cell culture overnight, the diluted samples to be tested were added at 50 μl/well. The plates were placed in an incubator at 37° C., 5% CO2 and cultured for 68-72 hours. To each well, 15 μl (10% of the liquid volume in a well) of a color developing solution from CCK8 was added; and the plates were incubated at 37° C. for 45-70 minutes and each plate was read at 450 nm on a microplate reader. The data was edited using SoftMax Pro and a 4-P fitting curve was plotted.

[5] = system: SK-BR-3 (human breast cancer cells); experiment: Inhibition of cell line proliferation, CCK8; type: cell-based; details: for IC50 (MMAE)/IC50 (conjugate): SK-BR-3; for IC50: SK-BR-3, 68-72 hours, CCK8
Experimental: as §3
(§4) Experimental Operations: LNCaP, SK-BR-3, MDA-MB-468 and CFPAC-1 cells were prepared in advance and counted; with a culture medium (IMDM+10% FBS+1× L-Glutamine+1×P/S), the cells LNCaP, SK-BR-3, MDA-MB-468 and CFPAC-1 were diluted to 4×10^4 cells/ml; the diluted cell solution was plated in 96-well plates at 100 µl/well; and negative control and blank control wells were set on each plate. After adherent cell culture overnight, the diluted samples to be tested were added at 50 μl/well. The plates were placed in an incubator at 37° C., 5% CO2 and cultured for 68-72 hours. To each well, 15 μl (10% of the liquid volume in a well) of a color developing solution from CCK8 was added; and the plates were incubated at 37° C. for 45-70 minutes and each plate was read at 450 nm on a microplate reader. The data was edited using SoftMax Pro and a 4-P fitting curve was plotted.

[6] = system: PANC-1 (human pancreatic cancer cells); experiment: Inhibition of cell line proliferation, CCK8; type: cell-based
Experimental: Experimental operations: PANC-1 and CFPAC-1 cells were prepared in advance, counted, and plated in 96-well cell culture plates at a cell density of 4×10^4 cells/ml (100 μl/well); negative control and blank control wells were set on each plate. After adherent cell culture overnight, the diluted samples to be tested were added at 50 μl/well. The plates were placed in an incubator at 37° C., 5% CO2 and cultured for 68-72 hours. To each well, 15 μl (10% of the liquid volume in a well) of a color developing solution from CCK8 was added; and the plates were incubated at 37° C. for 45-70 minutes and each plate was read at 450 nm on a microplate reader. The data was edited using SoftMax Pro and a 4-P fitting curve was plotted.
as §3
as §4, with “Operations: LNCaP, MDA-MB-468, CFPAC-1 and PANC-1” for “Operations: LNCaP, SK-BR-3, MDA-MB-468 and CFPAC-1”, “CFPAC-1 and PANC-1 cells were” for “MDA-MB-468 and CFPAC-1 cells were”, “cells LNCaP, MDA-MB-468 and” for “cells LNCaP, SK-BR-3, MDA-MB-468 and”, “to 4×10^4 cells/ml, and PANC-1 was diluted to 3.0×10^4 cells/ml; the” for “to 4×10^4 cells/ml; the”, “at 100 μl/well; and negative” for “at 100 µl/well; and negative”

[7] = system: MDA-MB-468 (human breast cancer cells); experiment: Inhibition of cell line proliferation, CCK8; type: cell-based
[8] = system: SCLC-21H (small cell lung cancer cells); experiment: Tumor growth inhibition in subcutaneous xenograft model (CDX); type: in vivo, BALB/c-nude mice; details: SCLC-21H CDX
Experimental: as §1, §2

[9] = system: NCI-H226 (human lung cancer cells); experiment: as above; type: in vivo, BALB/c-nude mice
Experimental: as §1, §2

Compound | anti-tumor growth effect (in words) [1] | IC50 (MMAE)/IC50 (conjugate) [2] | IC50 [2] [nM] | IC50 ratio (MMAE/conjugate) [3] | IC50 [3] [nM] | IC50 (MMAE)/IC50 (conjugate) ([4]; NCI-H226) | IC50 ([4]; NCI-H226, 68-72 hours, CCK8) [nM] | IC50 (MMAE)/IC50 (conjugate) [5] | IC50 [5] [nM] | IC50 (MMAE)/IC50 (conjugate) ([6]; PANC-1) | IC50 ([6]; PANC-1, 68-72 hours, CCK8) [nM] | IC50 (MMAE)/IC50 (conjugate) ([7]; MDA-MB-468) | IC50 ([7]; MDA-MB-468, 68-72 hours, CCK8) [nM] | anti-tumor growth effect (in words) [8] | anti-tumor growth effect (in words) [9]
CC[C@H](C)[C@@H]([C@@H](CC(=O)N1CCC[C@H]1[C@H](OC)[C@@H](C)C(=O)N[C@H](C)[C@@H](O)c1ccccc1)OC)N(C)C(=O)[C@@H](NC(=O)[C@H](C(C)C)N(C)C(=O)OCc1ccc(NC(=O)C(CCCNC(N)=O)NC(=O)[C@@H](NC(=O)CCCCCN2C(=O)CC(SC[C@@H](NC(=O)CCCCCNC(=O)[C@H](CCCCN)NC(=O)[C@H](CC(=O)O)NC(=O)[C@H](CC(=O)O)NC(=O)Cc3ccc(CNC(=O)NCCCC[C@H](NC(=O)N[C@@H](CCC(=O)O)C(=O)O)C(=O)O)cc3)C(=O)NCCOCCOCCOCCOCCC(=O)N[C@@H](CCCCN)C(=O)N[C@@H](CCC(=O)O)C(=O)N[C@@H](Cc3ccccc3)C(=O)N[C@@H](CC(C)C)C(=O)N[C@@H](Cc3cnc[nH]3)C(=O)N3CCC[C@H]3C(=O)N[C@@H](CO)C(=O)N[C@@H](CCCCN)C(=O)NC(C(=O)N[C@@H](CC(=O)O)C(=O)N[C@@H](CC(C)C)C(=O)N3CCC[C@H]3C(=O)N[C@@H](CCCNC(=N)N)C(=O)O)C(C)C)C2=O)C(C)C)cc1)C(C)C (stereo partly drawn) [CB-1020] (I: {EuK-CO}-[X2]DDK[Ahx][dC][PEG4]KEFLHPSK[ξV]DLPR-OH / II: V[ξCit][PABC][NMeV]V[Dil][Dolaproine]-X1; linker I:6-II:N via Hexanoyl(6-succinimido-3yl)) | obvious anti-tumor growth effect | 0.005 | 3000 | 0.0179 | 168 | 0.00384 | 1570 | 0.0070 | 287 | 0.0044 | 458 | – | – | – | –
CC[C@H](C)[C@@H]([C@@H](CC(=O)N1CCC[C@H]1[C@H](OC)[C@@H](C)C(=O)N[C@H](C)[C@@H](O)c1ccccc1)OC)N(C)C(=O)[C@@H](NC(=O)[C@H](C(C)C)N(C)C(=O)OCc1ccc(NC(=O)C(CCCNC(N)=O)NC(=O)[C@@H](NC(=O)CCCCCN2C(=O)CC(SC[C@@H](NC(=O)CCCCCNC(=O)[C@H](CCCCN)NC(=O)[C@H](CC(=O)O)NC(=O)[C@H](CC(=O)O)NC(=O)Cc3ccc(CNC(=O)NCCCC[C@H](NC(=O)N[C@@H](CCC(=O)O)C(=O)O)C(=O)O)cc3)C(=O)NCCOCCOCCOCCOCCC(=O)NCCCCC(N[C@@H](Cc3ccc(O)cc3)C(=O)N[C@@H](CO)C(=O)N[C@@H](Cc3c[nH]c4ccccc34)C(=O)N[C@@H](Cc3cnc[nH]3)C(=O)[C@H]3CCC(=O)N3)C(=O)N[C@@H](CC(C)C)C(=O)N[C@@H](CCCNC(=N)N)C(=O)N3CCC[C@H]3C(=O)CN)C2=O)C(C)C)cc1)C(C)C (stereo partly drawn) [CB-1320] | – | 0.014 | 1090 | 0.043 | 60 | – | – | 0.016 | 93 | – | – | 0.011 | 212 | obvious anti-tumor growth effect | obvious anti-tumor growth effect
